From PMC7998974, “Enhanced Efficacy of Thiosemicarbazone Derivative-Encapsulated Fibrin Liposomes against Candidiasis in Murine Model” (Pharmaceutics, 2021)
≈ marks a conversion by molar mass, not a printed value.

Columns and labels:
[1] = In vivo renal and hepatic toxicity (serum creatinine, ALT, total bilirubin); conditions: healthy mice
Method: (§1) For in vivo toxicity, renal and hepatic toxicities were evaluated in healthy mice. According to the method of Khan et al., [39], a three-dose regimen of 400 µg formulation/dose/mouse was intraperitoneally given on the 1st, 3rd, and 5th days. Blood samples from different treatment groups were taken as pre-dose (a day before the administration of the formulation) and post-dose (the 6th day of the administration of the formulation). The levels of serum creatinine, ALT, and total bilirubin were evaluated by employing a commercial detection kit. Results are expressed as the mean ± SD of three independent experiments. Moreover, the extent of toxicity of 2C-FL was determined on liver and kidney histopathology.

C. albicans [2] = assay: Annexin-V assay for detecting apoptosis; type: cell-based, Candida albicans; conditions: annexin V-FITC/PI flow cytometry
Method: The therapeutic effect of 2C-FL against fungal infection was done by detecting the presence of apoptosis markers in C. albicans, as mentioned by Tang et al.. Briefly, 5 × 10^6 colony-forming units (CFU)/mL of C. albicans were grown at 37 °C for 5 h in the RPMI 1640 medium containing 2C-L and 2C-FL, separately. The culture was further incubated for 48 h at 37 °C with shaking at 180 rpm. After harvesting and washing with PBS (pH 7.4), the fungus was digested with a lysis buffer. After digestion, apoptotic cell death was analyzed using an annexin V assay as per the published protocol. The fungal cell suspension was incubated with annexin V-FITC (50 µg/mL) and propidium iodide (PI; 200 µg/mL) in dark for 20 min at room temperature. The apoptotic and necrotic cells were scored by flow cytometry (MACSQuant, Germany).

[3] = Histopathological examination of liver and kidney sections; type: in vivo; conditions: healthy mice, H&E, 200X
Method: as §1
Briefly, the fixed tissues were dehydrated and embedded in paraffin wax. […] Next, paraffin from the sections was removed by three consecutive washings in xylol. The sections were then […] in series of alcohol grades (70–100%), and, finally, the sections were stained with hematoxylin and eosin and visualized under a light microscope (Olympus CLX 41) at 200X magnification.

[4] = parameters: method as in PMID 26457700; conditions: solubility checked earlier; cited from earlier work
[5] = Erythrocyte lysis test (in vitro toxicity); type: cell-based; conditions: rabbit erythrocytes (0.2% RBC suspension), pH 7.4, dose of 10 mg/L, 37 °C, read-out: hemolytic ability to erythrocytes (percent hemolysis)
Method: The in vitro toxicity of free 2C and 2C-FL was determined using the previously published method of erythrocyte lysis test. Briefly, blood samples from a healthy rabbit were collected in an anticoagulant solution. The samples were centrifuged at 4 °C, the pellet containing erythrocytes was washed with PBS (pH 7.4), and, finally, 50% hematocrit was prepared. […] The hemolytic effects were evaluated by visible spectroscopy at 576 nm, and percent hemolysis was calculated. The 100% hemolytic ability of Triton X-100 was taken as the positive control. Results are expressed as the mean ± SD of three independent experiments.

C. albicans (ATCC 18804) = assay: Minimum inhibitory concentration by broth microdilution; type: cell-based; conditions: Candida albicans, ATCC18804, 50% inhibition of growth, RPMI 1640, 24 h, 37 °C, formulation weight for formulations
[6] = tested on: Candida albicans ATCC 66027, Candida spp. 12,810 (blood) and Candida spp.; parameters: method as in PMID 24513049; conditions: in vitro, series of substituted thiosemicarbazide derivatives; cited from earlier work
non-cancer cell lines = tested on: non-cancer cell lines; parameters: method as in PMID 24513049; conditions: cited from earlier work
[7] = Pharmacokinetics in healthy mice; type: in vivo; conditions: single dose, formulations 5 mg/kg b.w., free 2C 1 mg/kg b.w.
Method: For pharmacokinetic studies, 2C-L and 2C-FL were administered to healthy mice. A single dose of 5 mg/kg body weight (b.w.) of the formulations was injected via the tail vein. Free 2C was administered in a single dose comprising 1 mg/kg b.w. Blood aliquots were collected using a non-mortality model at different periods, and serum was centrifuged out. […] Results are reported as the mean ± SD of three independent experiments.

[8] = Determination of 2C dose (LD50) in healthy mice; type: in vivo
Method: The dose of 2C for the antifungal treatment in vivo was determined according to the already published report. Five groups (n = 5/group) comprising healthy mice were intraperitoneally injected with different doses of 2C. Mice of the sixth group (control group) were intraperitoneally injected with PBS.

C. albicans [9] = assay: Survival of C. albicans-infected mice; type: in vivo, Swiss albino mice; conditions: 2 mg 2C/kg b.w. for five days
Method: The antifungal activity of 2C-FL was determined in a mouse model with C. albicans infection. For infection, healthy mice were infected with an inoculum of 100 µL saline containing 5 × 10^5 CFU of C. albicans per mouse by an intravenous route in the lateral tail vein. One day post-infection, the mice were randomly distributed into six groups (n = 10/group) and treated with formulations (2 mg 2C/kg b.w.) for five days. […] A simultaneous set of experiments was conducted for the survival studies.
The antifungal ability of 2C-FL was also determined by evaluating the survival rate of the treated mice. The study was conducted for 60 days, during which mice were monitored for mortality twice each day and results were scored.

[10] = serum, post-dose, 400 µg formulation/dose/mouse i.p. on days 1, 3, 5

## O=C(NNC(=S)Nc1ccc(Cl)cc1)c1ccncc1 [2C]
[1]; [10]
  ALT, Day 6: 45.1 ± 8.5 U/I
  Creatinine, Day 6: 0.34 ± 0.05 mg%
  Total Bilirubin, Day 6: 0.21 ± 0.07
[1]; serum, pre-dose
  ALT, Day 0: 40.9 ± 7.3 U/I
  Creatinine, Day 0: 0.29 ± 0.06 mg%
  Total Bilirubin, Day 0: 0.15 ± 0.04
[1]; sixth day
  change in serum creatinine, ALT and bilirubin levels versus healthy control: showed an increase
C. albicans [2]
  necrosis: prominent increase
[3]
  toxic effect on kidney histopathology: prominent toxicity
  toxic effect on liver histopathology: focal lytic necrosis and enlarged sinusoids
[4]
  solubility in water: insoluble in water
[5]
  hemolysis at 1 h, 10 mg/L: 100%
C. albicans (ATCC 18804)
  MIC: 0.46 ± 0.05 µg/mL (≈ 1.5 µM)
[6]
  anti-Candida activity within the series: most effective one
non-cancer cell lines
  toxicity to non-cancer cell lines: minimal toxicity
[7]; Swiss albino, mouse, plasma, intravenous
  Cmax: 1400 ± 250 ng/mL
[7]; Swiss albino, mouse, plasma, intravenous, read-out: CL (plasma clearance) (converted)
  clearance: 1.28 mL/min
[7]
  AUC0–24: 0.91 ± 0.17 µg/mL x h
[8]; healthy mice, intraperitoneal, mortality after 24 h
  LD50: 20 mg/kg b.w.
[8]; mice, 2 mg/kg b.w., three weeks of treatment
  mortality at one-tenth of the LD50: did not show any mortality
C. albicans [9]
  survival of treated mice till the 30th day: 30%

## CCC(C)n1ncn(-c2ccc(N3CCN(c4ccc(OCC5COC(Cn6cncn6)(c6ccc(Cl)cc6Cl)O5)cc4)CC3)cc2)c1=O (stereo not shown) [Itraconazole, itraconazole, reference compound]
C. albicans (ATCC 18804)
  MIC: 1.26 ± 0.71 µg/mL (≈ 1.79 µM)
